From patent publication US10662210B2, “Compositions and methods comprising osmium for the treatment of cancers” (Massachusetts Institute of Technology, priority 2014, dated 2020)
Like-named read-outs stand apart in the source and are kept apart here.

What was measured:
[1] = tested on: A2780 cells; assay: Cytotoxicity MTT assay with pathway and cell death inhibitors; type: cell-based, human; conditions: for IC50: 72 hours incubation; for effect of chloroquine and IM-54 on potency: inhibitors 10 μM; for effect of p53 inhibitors on toxicity: pifithrin-α and pifithrin-μ, both 10 μM
Procedure: This finding led to the investigation of the possibility that 4 may induce endoplasmic reticulum (ER) stress. Co-administration of 4 and salubrinal (10 μM), a known ER stress inhibitor, reduced the cytotoxicity of 4 in A2780 cells. […] To further validate the ER as the main target for 4, the expression of proteins related to the unfolded protein response (UPR) was monitored. […] ER membrane expansion is widely associated with ER stress. With this fact in mind the ER size of A2780 cells upon incubation with 4 were examined using fluorescence microscopy. Relative to untreated controls (FIG. 3B), cells exposed to 4 (10 μM) for 4 h had 25.1% larger ER coverage (FIG. 3C). The ER size relative to the whole cell of the untreated controls was about 30% and the ER size relative to the whole cell of the treated samples was about 55%.
Having established the intracellular targets of 2 and 4, the role of p53, a cell cycle and apoptosis regulator, in the cellular responses evoked was investigated. […] Therefore, p53 played a fundamental role in coordinating the cellular response to 2-induced DNA damage. […] (FIG. 13). […] To relate p53 to potency, cytotoxicity studies were conducted in the presence of p53 inhibitors pifithrin-α and pifithrin-μ. (both 10 μM). […] The IC50 values of compound 2 in the absence and presence of p53 inhibitor pifithrin-μ after 72 hours incubation was about 2 μM and about 30 μM, respectively.
The colorimetric MTT assay was used to determine the toxicity of the osmium complexes and cisplatin. Cells (2×10^3) were seeded in each well of a 96-well plate. After incubating the cells overnight, various concentrations of test compound (0.3-100 μM) were added and incubated for 72 h (total volume 200 μL). The test compounds were prepared as 10 mM solutions in DMSO and diluted using media. The final concentration of DMSO in each well was 0.5% and this amount was present in the untreated control as well. Cisplatin was prepared as a 5 mM solution in PBS and diluted further using media. After 72 h, the medium was removed, 200 μL of a 0.4 mg/mL solution of MTT in DMEM or RPMI was added, and the plate was incubated for an additional 1-2 h. The DMEM/MTT or RPMI/MTT mixture was aspirated and 200 μL of DMSO was added to dissolve the resulting purple formazan crystals. The absorbance of the solution wells was read at 550 nm. Absorbance values were normalized to DMSO-containing control wells and plotted as concentration of test compound versus % cell viability. IC50 values were interpolated from the resulting dose dependent curves. The reported IC50 values are the average from at least three independent experiments, each of which consisted of six replicates per concentration level.
For specific pathway and cell death inhibitor assays, inhibitors of p53 (pifithrin-α, 10 μM and pifithrin-μ, 10 μM), ER stress (salubrinal, 10 μM), necrosis (IM-54, 10 μM), and autophagocytosis (chloroquine, 10 μM) were added to cells and incubated for 0-1 h prior to treatment with the test compounds.

[2] = tested on: A2780 cells; assay: DNA flow cytometric cell cycle analysis; type: cell-based, human
Procedure: After 24 hours untreated A2780 cells had the following distribution: G1: 73.4%, S: 21.7%, and G2/M: 5.0%. After 48 hours untreated A2780 cells had the following distribution: G1: 75.1%, S: 19.6%, and G2/M: 5.2%. After 72 hours untreated had the following distribution: G1: 73.6%, S: 21.0%, and G2/M: 5.4%. After 24 hours A2780 cells treated with 2 had the following distribution: G1: 61.0%, S: 27.9%, and G2/M: 11.1%. After 48 hours A2780 cells treated with 2: G1: 61.8%, S: 19.0%, and G2/M: 19.1%. After 72 hours A2780 cells treated with 2 had the following distribution: G1: 57.3%, S: 23.3%, and G2/M: 19.4%. This property may be related to upregulation of p53 and phosphorylation of CHK1. Complex 4 induced relatively small perturbations to the cell cycle; changes in phase populations remained <5% even after a 72-hours incubation. After 24 hours untreated A2780 cells had the following distribution: G1: 73.7%, S: 23.1%, and G2/M: 3.3%. After 48 hours untreated A2780 cells had the following distribution: G1: 73.4%, S: 21.7%, and G2/M: 4.9%. After 72 hours untreated A2780 cells had the following distribution: G1: 79.7%, S: 19.4%, and G2/M: 0.9%. After 24 hours A2780 cells treated with 4 had the following distribution: G1: 70.9%, S: 24.8%, and G2/M: 4.6%. After 48 hours A2780 cells treated with 4 had the following distribution: G1: 71.9%, S: 18.3%, and G2/M: 9.8%. After 72 hours A2780 cells treated with 4 had the following distribution: G1: 70.3%, S: 24.4%, and G2/M: 5.3%.
In order to monitor the cell cycle, flow cytometry studies were carried out. A2780 cells were incubated with and without the test compounds for 24-72 h at 37° C. Studies on A549 cells under normal and starved (proliferating and non-proliferating) conditions were also carried out. Cells were harvested from adherent cultures by trypsinization. Following centrifugation at 1000 rpm for 5 min, cells were washed with PBS and then fixed with 70% ethanol in PBS. Fixed cells were collected by centrifugation at 2500 rpm for 3 min, washed with PBS and centrifuged as before. Cellular pellets were re-suspended in 50 μg/ml propidium iodide (Sigma) in PBS for nucleic acids staining and treated with 100 μg/ml RNaseA (Sigma). DNA content was measured on a FACSCalibur-HTS flow cytometer (BD Biosciences) using laser excitation at 488 nm and 20,000 events per sample were acquired. Cell cycle profiles were analysed using the ModFit software. For the apoptosis experiments, the Annexin V-FITC Early Apoptosis Detection Kit was used. The manufacture's protocol was followed to carry out this experiment. Briefly, untreated and treated cells (1×10^5) were suspended in 1× annexin binding buffer (96 μL) (10 mM HEPES, 140 mM NaCl, 2.5 mM CaCl2), pH 7.4), then 1 μL FITC annexin V and 12.5 μL PI (10 μg/mL) were added to each sample and incubated on ice for 15 min. After which more binding buffer (150 μL) was added while gently mixing. The samples were kept on ice prior to being read on the FACSCalibur-HTS flow cytometer (BD Biosciences) and 20,000 events per sample were acquired. Cell populations were analysed using the FlowJo software (Tree Star).

Row | Structure (SMILES) | IC50 ([1]; read-out: IC50 in the absence of pifithrin-α) | IC50 ([1]; read-out: IC50 in the absence of pifithrin-μ) | effect of chloroquine and IM-54 on potency [1] | IC50 ([1]; pifithrin-α 10 μM, read-out: IC50 in the presence of pifithrin-α) | effect of p53 inhibitors on toxicity [1] | IC50 ([1]; pifithrin-μ 10 μM, read-out: IC50 in the presence of pifithrin-μ) | effect of salubrinal on toxicity ([1]; salubrinal 10 μM) | cell cycle distribution G1 ([2]; 24 hours) | cell cycle distribution G2/M ([2]; 24 hours) | cell cycle distribution S ([2]; 24 hours) | cell cycle distribution G1 ([2]; 48 hours) | cell cycle distribution G2/M ([2]; 48 hours) | cell cycle distribution S ([2]; 48 hours) | increase in G2/M population ([2]; 72 h incubation) | cell cycle distribution G1 ([2]; 72 hours) | cell cycle distribution G2/M ([2]; 72 hours) | cell cycle distribution S ([2]; 72 hours) | IC50 increase on co-administration of salubrinal compared to compound alone ([1]; salubrinal 10 μM) | changes in phase populations ([2]; up to 72-hours incubation)
1 | [N]#[Os]1([Cl])([Cl])([Cl])[N]2C=CC=c3ccc4c(c32)[N]1C=CC=4 [Complex 2, OsN(1,10-phenanthroline)Cl3] | ~4.5 µM | ~2 µM | little effect | ~2 µM | increased significantly | ~30 µM | limited effect | 61.0% | 11.1% | 27.9% | 61.8% | 19.1% | 19.0% | ~3 fold | 57.3% | 19.4% | 23.3% | – | –
2 | [N]#[Os]1([Cl])([Cl])([Cl])[N]2C=CC(c3ccccc3)=c3ccc4c(c32)[N]1C=CC=4c1ccccc1 [Complex 4, OsN(4,7-diphenyl-1,10-phenanthroline)Cl3] | – | – | little effect | – | unaffected | – | – | 70.9% | 4.6% | 24.8% | 71.9% | 9.8% | 18.3% | – | 70.3% | 5.3% | 24.4% | 13.3 fold | < 5%
